Nine molecules from ChEMBL document CHEMBL5247669, “Synthesis, modeling, and biological evaluation of anti-tubulin indole-substituted furanones” (Bioorg Med Chem Lett, 2023) can be followed below.

pEC50, pIC50: −log10 of the molar value. Activity calls are given as the source filed them. The calls are words filed in the database; no cut-off is given here.

Assay [1] concerns U-937. The assay can be described thus: Anticancer activity against human U-937 cells assessed as reduction in cell viability by MTT assay. The assay is classed as functional, cell-based.
The subject of assay [2] is OVCAR-5. Description: Growth inhibition of human OVCAR-5 cells by MTT assay. The assay is classed as functional.
For assay [3], the system named is SK-OV-3. Description: Growth inhibition of human SK-OV-3 cells by MTT assay. In kind it is functional. (In general: Tetrazolium dyes change colour on reduction, which living cells bring about.)
Assay [4] deals with OVCAR-3. The assay can be described thus: Growth inhibition of human OVCAR-3 cells by MTT assay. In kind it is functional.
In assay [5] the test system is HCT-116. The assay can be described thus: Growth inhibition of human HCT-116 cells by MTT assay. In kind it is functional.
The subject of assay [6] is OVCAR-8. The assay can be described thus: Growth inhibition of human OVCAR-8 cells by MTT assay. In kind it is functional.
Assay [7] relates to NCI-H23. Description: Growth inhibition of human NCI-H23 cells by MTT assay. The assay is classed as functional.
For assay [8], the system named is HOP-92. Description: Growth inhibition of human HOP-92 cells by MTT assay. In kind it is functional.
Assay [9] deals with Hs-578T. The assay can be described thus: Growth inhibition of human Hs-578T cells by MTT assay. In kind it is functional.
The test system of assay [10] is SR. The assay can be described thus: Growth inhibition of human SR cells by MTT assay. The assay is classed as functional.
Assay [11] relates to OVCAR-4. The assay can be described thus: Growth inhibition of human OVCAR-4 cells by MTT assay. In kind it is functional.
Assay [12] has as its system KM12. Description: Growth inhibition of human KM12 cells by MTT assay. The assay is classed as functional.
In assay [13] the test system is CCRF-CEM. Description: Growth inhibition of human CCRF-CEM cells by MTT assay. The assay is classed as functional.
Assay [14] concerns HCC 2998. Description: Growth inhibition of human HCC 2998 cells by MTT assay. In kind it is functional.
For assay [15], the system named is NCI-H522. Description: Growth inhibition of human NCI-H522 cells by MTT assay. The assay is classed as functional.
The test system of assay [16] is K562. The assay can be described thus: Growth inhibition of human K562 cells by MTT assay. In kind it is functional.
Assay [17] concerns SK-MEL-5. The assay can be described thus: Growth inhibition of human SK-MEL-5 cells by MTT assay. The assay is classed as functional.
For assay [18], the system named is A498. Description: Growth inhibition of human A498 cells by MTT assay. In kind it is functional.
Assay [19] deals with SF-539. Description: Growth inhibition of human SF-539 cells by MTT assay. In kind it is functional.
Assay [20] deals with MCF7. Description: Growth inhibition of human MCF7 cells by MTT assay. In kind it is functional.
Assay [21] has as its system NCI-H226. The assay can be described thus: Growth inhibition of human NCI-H226 cells by MTT assay. In kind it is functional.
For assay [22], the system named is LOX IMVI. The assay can be described thus: Growth inhibition of human LOX IMVI cells by MTT assay. The assay is classed as functional.
Assay [23] deals with UACC-62. Description: Growth inhibition of human UACC-62 cells by MTT assay. In kind it is functional.
Assay [24] concerns MOLT-4. The assay can be described thus: Growth inhibition of human MOLT-4 cells by MTT assay. The assay is classed as functional.
The subject of assay [25] is SN12C. Description: Growth inhibition of human SN12C cells by MTT assay. In kind it is functional.
The test system of assay [26] is CAKI-1. Description: Growth inhibition of human CAKI-1 cells by MTT assay. The assay is classed as functional.
Assay [27] relates to Malme-3M. Description: Growth inhibition of human Malme-3M cells by MTT assay. In kind it is functional.
In assay [28] the test system is PC-3. The assay can be described thus: Growth inhibition of human PC-3 cells by MTT assay. In kind it is functional.
The subject of assay [29] is HOP-62. The assay can be described thus: Growth inhibition of human HOP-62 cells by MTT assay. The assay is classed as functional.
Assay [30] relates to SF-295. The assay can be described thus: Growth inhibition of human SF-295 cells by MTT assay. The assay is classed as functional.
Assay [31] deals with SW-620. The assay can be described thus: Growth inhibition of human SW-620 cells by MTT assay. In kind it is functional.
Assay [32] relates to SNB-75. The assay can be described thus: Growth inhibition of human SNB-75 cells by MTT assay. The assay is classed as functional.
Assay [33] has as its system EKVX. The assay can be described thus: Growth inhibition of human EKVX cells by MTT assay. In kind it is functional.
Assay [34] deals with T47D. The assay can be described thus: Growth inhibition of human T47D cells by MTT assay. In kind it is functional.
Assay [35] concerns UACC-257. The assay can be described thus: Growth inhibition of human UACC-257 cells by MTT assay. In kind it is functional.
The test system of assay [36] is MDA-MB-468. Description: Growth inhibition of human MDA-MB-468 cells by MTT assay. The assay is classed as functional.
Assay [37] relates to HL-60. Description: Growth inhibition of human HL-60 cells by MTT assay. In kind it is functional.
Assay [38] concerns ACHN. The assay can be described thus: Growth inhibition of human ACHN cells by MTT assay. In kind it is functional.
Assay [39] deals with DU-145. Description: Growth inhibition of human DU-145 cells by MTT assay. In kind it is functional.
Assay [40] relates to UO-31. Description: Growth inhibition of human UO-31 cells by MTT assay. The assay is classed as functional.
The subject of assay [41] is SNB-19. The assay can be described thus: Growth inhibition of human SNB-19 cells by MTT assay. The assay is classed as functional.
Assay [42] concerns A549. Description: Growth inhibition of human A549 cells by MTT assay. In kind it is functional.
Assay [43] deals with HT-29. Description: Growth inhibition of human HT-29 cells by MTT assay. The assay is classed as functional.
The test system of assay [44] is SK-MEL-2. The assay can be described thus: Growth inhibition of human SK-MEL-2 cells by MTT assay. The assay is classed as functional.
The subject of assay [45] is 786-0. Description: Growth inhibition of human 786-0 cells by MTT assay. In kind it is functional.
The test system of assay [46] is M14. The assay can be described thus: Growth inhibition of human M14 cells by MTT assay. In kind it is functional.
Assay [47] has as its system MDA-MB-435. The assay can be described thus: Growth inhibition of human MDA-MB-435 cells by MTT assay. In kind it is functional.
Assay [48] relates to MDA-MB-231. The assay can be described thus: Growth inhibition of human MDA-MB-231 cells by MTT assay. In kind it is functional.
Assay [49] relates to COLO 205. The assay can be described thus: Growth inhibition of human COLO 205 cells by MTT assay. The assay is classed as functional.
Assay [50] has as its target Tubulin (Homo sapiens) (UniProt P68371+Q9H4B7+P0DPH7+P68366+Q13509+Q71U36+P04350+Q3ZCM7+P07437+P68363+Q9BQE3+Q6PEY2+Q13885+Q9BVA1+Q9BUF5). Description: Inhibition of tubulin polymerization (unknown origin) at 10 uM. The assay is classed as protein-complex assay.
For assay [51], the system named is U-251. Description: Growth inhibition of human U-251 cells by MTT assay. In kind it is functional.
Assay [52] has as its system RXF 393. The assay can be described thus: Growth inhibition of human RXF 393 cells by MTT assay. In kind it is functional.
The test system of assay [53] is IGROV-1. The assay can be described thus: Growth inhibition of human IGROV-1 cells by MTT assay. In kind it is functional, cell-based.
The test system of assay [54] is HCT-15. The assay can be described thus: Growth inhibition of human HCT-15 cells by MTT assay. The assay is classed as functional.
Assay [55] deals with NCI-H322M. The assay can be described thus: Growth inhibition of human NCI-H322M cells by MTT assay. The assay is classed as functional.
The test system of assay [56] is RPMI-8226. The assay can be described thus: Growth inhibition of human RPMI-8226 cells by MTT assay. In kind it is functional.
In assay [57] the test system is TK-10. Description: Growth inhibition of human TK-10 cells by MTT assay. The assay is classed as functional.
Assay [58] has as its system NCI/ADR-RES. Description: Growth inhibition of human NCI/ADR-RES cells by MTT assay. The assay is classed as functional.
Assay [59] deals with SK-MEL-28. The assay can be described thus: Growth inhibition of human SK-MEL-28 cells by MTT assay. In kind it is functional.
Assay [60] has as its system NCI-H460. The assay can be described thus: Growth inhibition of human NCI-H460 cells by MTT assay. The assay is classed as functional.
In assay [61] the test system is SF-268. Description: Growth inhibition of human SF-268 cells by MTT assay. The assay is classed as functional.
Assay [62] relates to BT-549. Description: Growth inhibition of human BT-549 cells by MTT assay. The assay is classed as functional.

The term pEC50 denotes the negative decadic logarithm of the EC50, by convention in mol/L. Regarding `COc1ccccc1C1=C(c2cn(C)c3ccccc23)COC1=O`, the pEC50 in assay [1] was below 5.00.

For `Cc1ccc(C2=C(c3cn(C)c4ccccc34)COC2=O)cc1`, the pEC50 in assay [1] is below 5.00.

In the case of `Cc1cccc(C2=C(c3cn(C)c4ccccc34)COC2=O)c1`, in [1], the pEC50 is below 5.00.

Take `Cn1cc(C2=C(c3ccccc3)C(=O)OC2)c2ccccc21`: the negative-log EC50 (pEC50) in [1] was below 5.00.

`COc1ccc(C2=C(c3cn(C)c4ccccc34)COC2=O)cc1OC`: in [1], the pEC50 is below 5.00.

In the case of `COc1ccc(OC)c(C2=C(c3cn(C)c4ccccc34)COC2=O)c1`, the pEC50 in assay [1] is 5.49.

On to `COc1ccc(C2=C(c3cn(C)c4ccccc34)COC2=O)cc1`, for which the pEC50 in [1] is below 5.00.

In general, GI50 refers to the concentration that inhibits growth by half. The low end stands for greater sensitivity of the cells, the high end for lower sensitivity of the cells. For orientation: pIC50 means the negative decadic logarithm of the IC50, by convention in mol/L. For `COc1cc(C2=C(c3cn(C)c4ccccc34)COC2=O)cc(OC)c1OC`, the GI50 was 479 nM in [2]; 269 nM in [3]; 36 nM in assay [4]; 40 nM in assay [5]; 339 nM in assay [6]; 234 nM in assay [7]. Also, the GI50 in [8] turned out to be 251 nM; in assay [9], 158 nM; in assay [10] it was 22 nM; in assay [11] it was 1260 nM; in assay [12], 65 nM; in assay [13], 59 nM. For the same molecule, the GI50 in assay [14] came out at 219 nM; in assay [15], 49 nM; in [16], 37 nM; in assay [17], 78 nM; in [18] it was 17 nM; in assay [19], 105 nM. Further, the concentration for 50% growth inhibition (GI50) in [20] stood at 28 nM; in assay [21] it was 692 nM; in [22] it was 66 nM; in assay [23], 54 nM; in [24] it was 55 nM; in assay [25], 282 nM. For the same molecule, the GI50 in assay [26] is 52 nM; in [27], 195 nM; in assay [28] it was 102 nM; in assay [29], 123 nM; in [30], 40 nM; in assay [31] it was 45 nM. Also, the GI50 in [32] was 44 nM; in assay [33], 151 nM; in assay [34], 60 nM; in assay [35], 1620 nM; in assay [36], 32 nM; in [37] it was 43 nM. In addition, the 50% growth inhibitory concentration (GI50) in assay [38] stood at 537 nM; in assay [39], 209 nM; in assay [40] it was 186 nM; in assay [41], 158 nM; in assay [42], 100 nM; in assay [43] it was 38 nM. Further, the GI50 came out at 229 nM in assay [44]; 316 nM in assay [45]; 37 nM in assay [46]; 25 nM in assay [47]; 339 nM in assay [48]; 65 nM in assay [49]. Moreover, the GI50 was 72 nM in assay [51]; 132 nM in assay [52]; 43 nM in assay [54]; 407 nM in [55]; 110 nM in assay [56]; 933 nM in assay [57]. The 50% growth inhibitory concentration (GI50) worked out at 47 nM in assay [58]; 427 nM in assay [59]; 54 nM in assay [60]; 813 nM in assay [61]; 62 nM in assay [62]. The pEC50 in assay [1] was 6.22. Moreover, the inhibition entry in [50] is “Active”. This molecule also showed a pIC50 in [53] of 7.12.

`COc1cccc(C2=C(c3cn(C)c4ccccc34)COC2=O)c1`: the pEC50 in [1] was below 5.00.
